# Results from publication PMC8453936, “Development and in vitro Profiling of Dual FXR/LTA4H Modulators” (Chemmedchem, 2021).
# System: related nuclear receptors (RAR, PPAR, LXR, VDR, CAR, RXR)
# Assay: Gal4 hybrid reporter gene assays, selectivity over related nuclear receptors (HEK293T)
# Type: cell-based, human
# Details: heatmap of mean relative activation, n=2
# Excerpt: Isothermal titration calorimetry (ITC) confirmed binding of 8 and 19 to the recombinant proteins of both FXR LBD and LTA4H (Figure 1).
# Figure 2 (a) Selectivity profiles of 8 and 19 over related nuclear receptors. […] (b) Activity of 8 and 19 in a WST‐1 cell viability assay in HepG2 cells. Data are mean±S.E.M., n=4. […] Data are mean±S.E.M. relative FXR activation (%), n≥3. […] Data are mean±S.E.M. relative LTA4H inhibition (%), n=3.
# Hybrid reporter gene assays. Nuclear receptor modulation was determined in hybrid reporter gene assays using the Gal4‐fusion receptor plasmids pFA‐CMV‐hPPARα‐LBD,[39] pFA‐CMV‐hPPARγLBD,[39] pFA‐CMV‐hPPARδ‐LBD,[39] pFA‐CMV‐hLXRα‐LBD,[40] pFACMV‐hLXRβ‐LBD,[40] pFA‐CMV‐hRXRα‐LBD,[41] pFA‐CMV‐hRARα‐LBD,[41] pFA‐CMV‐hVDR‐LBD[41] and pFA‐CMV‐hCAR‐LBD[41] coding for the hinge region and ligand binding domain (LBD) of the canonical isoform of the respective nuclear receptor, pFR‐Luc (Stratagene) as reporter plasmid and pRL‐SV40 (Promega) for normalization of transfection eﬃciency. HEK293T cells were grown in DMEM high glucose, supplemented with 10 % FCS, sodium pyruvate (1 mM), penicillin (100 U/mL), and streptomycin (100 μg/mL) at 37 °C and 5 % CO2, and seeded in 96‐well plates (2.5 ⋅ 10^4 cells/well) the day before transfection. […] Luminescence was measured with an Infinite M200 luminometer (Tecan Deutschland GmbH, Germany). […]
structure (smiles),measurement,value
O=C(O)c1cccc(NC(=O)c2ccc(OCCCc3ccccc3)cc2)c1 [compound 8],selectivity over related nuclear receptors,favorable selectivity
"O=C(O)c1ccnc(NC(=O)c2ccc(OCCCc3ccccc3)cc2)c1 [compound 19, 2‐(4‐(3‐Phenylpropoxy)benzamido)isonicotinic acid]",selectivity over related nuclear receptors,favorable selectivity
